Results: ChEMBL document CHEMBL5537113, “Discovery of 1,2-diaryl-3-oxopyrazolidin-4-carboxamides as a new class of MurA enzyme inhibitors and characterization of their antibacterial activity” (Eur J Med Chem, 2023)
Active and inactive are the calls of the source. The calls are words filed in the database; no cut-off is given here.

Key:
Clostridioides difficile [1] = test: Antibacterial activity against Clostridioides difficile NR-13436 assessed as reduction in microbial growth incubated for 48 hrs by broth microdilution method; assay type: functional
Lactobacillus gasseri [2] = test: Antibacterial activity against Lactobacillus gasseri HM 407 assessed as reduction in microbial growth incubated for 48 hrs by broth microdilution method; assay type: functional
Clostridioides difficile [3] = test: Antibacterial activity against Clostridioides difficile ATCC BAA1870 assessed as reduction in microbial growth incubated for 48 hrs by broth microdilution method; assay type: functional
Bifidobacterium longum = test: Antibacterial activity against Bifidobacterium longum HM 846 assessed as reduction in microbial growth incubated for 48 hrs by broth microdilution method; assay type: functional
[4] = tested on: Bifidobacterium angulatum; test: Antibacterial activity against Bifidobacterium angulatum HM 1189 assessed as reduction in microbial growth incubated for 48 hrs by broth microdilution method; assay type: functional
Clostridioides difficile [5] = test: Antibacterial activity against Clostridioides difficile NR-49283 assessed as reduction in microbial growth incubated for 48 hrs by broth microdilution method; assay type: functional
Clostridioides difficile [6] = test: Antibacterial activity against Clostridioides difficile HM-88 assessed as reduction in microbial growth incubated for 48 hrs by broth microdilution method; assay type: functional
Clostridioides difficile [7] = test: Antibacterial activity against Clostridioides difficile NR-32903 assessed as reduction in microbial growth incubated for 48 hrs by broth microdilution method; assay type: functional
Streptococcus pneumoniae = test: Antibacterial activity against Streptococcus pneumoniae ATCC 700677 assessed as reduction in microbial growth by CLSI based broth microdilution method; assay type: functional
Bacteroides fragilis [8] = test: Antibacterial activity against Bacteroides fragilis HM 719 assessed as reduction in microbial growth incubated for 48 hrs by broth microdilution method; assay type: functional
Clostridioides difficile [9] = test: Antibacterial activity against Clostridioides difficile NR-49277 assessed as reduction in microbial growth incubated for 48 hrs by broth microdilution method; assay type: functional
Clostridioides difficile [10] = test: Antibacterial activity against Clostridioides difficile NR-32895 assessed as reduction in microbial growth incubated for 48 hrs by broth microdilution method; assay type: functional
Clostridioides difficile [11] = test: Antibacterial activity against Clostridioides difficile NR-32889 assessed as reduction in microbial growth incubated for 48 hrs by broth microdilution method; assay type: functional
Bacteroides fragilis [12] = test: Antibacterial activity against Bacteroides fragilis HM 20 assessed as reduction in microbial growth incubated for 48 hrs by broth microdilution method; assay type: functional
Clostridioides difficile [13] = test: Antibacterial activity against Clostridioides difficile NR-49282 assessed as reduction in microbial growth incubated for 48 hrs by broth microdilution method; assay type: functional
Clostridioides difficile [14] = test: Antibacterial activity against Clostridioides difficile NR-49278 assessed as reduction in microbial growth incubated for 48 hrs by broth microdilution method; assay type: functional
Lactobacillus crispatus [15] = test: Antibacterial activity against Lactobacillus crispatus HM 103 assessed as reduction in microbial growth incubated for 48 hrs by broth microdilution method; assay type: functional
Clostridioides difficile [16] = test: Antibacterial activity against Clostridioides difficile NR-49291 assessed as reduction in microbial growth incubated for 48 hrs by broth microdilution method; assay type: functional
Clostridioides difficile [17] = test: Antibacterial activity against Clostridioides difficile NR-49279 assessed as reduction in microbial growth incubated for 48 hrs by broth microdilution method; assay type: functional
Clostridioides difficile [18] = test: Antibacterial activity against Clostridioides difficile NR-13427 assessed as reduction in microbial growth incubated for 48 hrs by broth microdilution method; assay type: functional
Clostridioides difficile [19] = test: Bactericidal activity against Clostridioides difficile NR-32895 assessed as reduction in microbial growth by broth microdilution method; assay type: functional
Clostridioides difficile [20] = test: Bactericidal activity against Clostridioides difficile ATCC 43255 assessed as reduction in microbial growth by broth microdilution method; assay type: functional
Clostridioides difficile [21] = test: Antibacterial activity against Clostridioides difficile NR-32904 assessed as reduction in microbial growth incubated for 48 hrs by broth microdilution method; assay type: functional
Clostridioides difficile [22] = test: Antibacterial activity against Clostridioides difficile NR-49285 assessed as reduction in microbial growth incubated for 48 hrs by broth microdilution method; assay type: functional
Clostridioides difficile [23] = test: Antibacterial activity against Clostridioides difficile NR-49288 assessed as reduction in microbial growth incubated for 48 hrs by broth microdilution method; assay type: functional
Clostridioides difficile [24] = test: Antibacterial activity against Clostridioides difficile NR-49287 assessed as reduction in microbial growth incubated for 48 hrs by broth microdilution method; assay type: functional
Clostridioides difficile [25] = test: Bactericidal activity against Clostridioides difficile ATCC BAA1870 assessed as reduction in microbial growth by broth microdilution method; assay type: functional
Clostridioides difficile [26] = test: Antibacterial activity against Clostridioides difficile NR-49284 assessed as reduction in microbial growth incubated for 48 hrs by broth microdilution method; assay type: functional
Clostridioides difficile [27] = test: Bactericidal activity against Clostridioides difficile NR-32904 assessed as reduction in microbial growth by broth microdilution method; assay type: functional
Clostridioides difficile [28] = test: Antibacterial activity against Clostridioides difficile NR-49286 assessed as reduction in microbial growth incubated for 48 hrs by broth microdilution method; assay type: functional
Lactobacillus gasseri [29] = test: Antibacterial activity against Lactobacillus gasseri HM 403 assessed as reduction in microbial growth incubated for 48 hrs by broth microdilution method; assay type: functional
Bacteroides fragilis [30] = test: Antibacterial activity against Bacteroides fragilis HM 718 assessed as reduction in microbial growth incubated for 48 hrs by broth microdilution method; assay type: functional
Clostridioides difficile [31] = test: Bactericidal activity against Clostridioides difficile NR-49278 assessed as reduction in microbial growth by broth microdilution method; assay type: functional
Bifidobacterium breve [32] = test: Antibacterial activity against Bifidobacterium breve HM 412 assessed as reduction in microbial growth incubated for 48 hrs by broth microdilution method; assay type: functional
Bifidobacterium breve [33] = test: Antibacterial activity against Bifidobacterium breve HM1120 assessed as reduction in microbial growth incubated for 48 hrs by broth microdilution method; assay type: functional
Bacteroides fragilis [34] = test: Antibacterial activity against Bacteroides fragilis HM 709 assessed as reduction in microbial growth incubated for 48 hrs by broth microdilution method; assay type: functional
Clostridioides difficile [35] = test: Bactericidal activity against Clostridioides difficile NR-49284 assessed as reduction in microbial growth by broth microdilution method; assay type: functional
Clostridioides difficile [36] = test: Antibacterial activity against Clostridioides difficile NR-49294 assessed as reduction in microbial growth incubated for 48 hrs by broth microdilution method; assay type: functional
Lactobacillus crispatus [37] = test: Antibacterial activity against Lactobacillus crispatus HM 420 assessed as reduction in microbial growth incubated for 48 hrs by broth microdilution method; assay type: functional
Staphylococcus aureus [38] = test: Antibacterial activity against vancomycin resistant Staphylococcus aureus 10 assessed as reduction in microbial growth by CLSI based broth microdilution method; assay type: functional
Clostridioides difficile [39] = test: Antibacterial activity against Clostridioides difficile ATCC 43255 assessed as reduction in microbial growth incubated for 48 hrs by broth microdilution method; assay type: functional
Bacteria = test: Binding affinity to wild type U15-N labelled MurA (unknown origin) expressed in Escherichia coli at 500 uM using UNAG as substrate incubated for 90 to 150 mins by 15N-1H-HSQC NMR analysis; conditions: time 90-150 min
Staphylococcus aureus [40] = test: Antibacterial activity against Staphylococcus aureus Newman D2C NCTC 10833 assessed as reduction in microbial growth incubated for 16 hrs by serial dilution method; assay type: functional
[41] = molecular target: T1, UDP-N-acetylglucosamine 1-carboxyvinyltransferase (Escherichia coli K-12, UniProt P0A749); test: Inhibition of Escherichia coli K12 His-tagged MurA expressed in Escherichia coli BL21 cells using UNAG as substrate pre incubated for 15 mins followed by substrate addition and measured after 15 mins by microplate reader analysis
Escherichia coli = test: Antibacterial activity against Escherichia coli harboring tolC deletion mutant assessed as reduction in microbial growth incubated for 16 hrs by serial dilution method; assay type: functional
[42] = tested on: UDP-N-acetylglucosamine 1-carboxyvinyltransferase (Escherichia coli K-12), P0A749 [C115D]; test: Inhibition of Escherichia coli MurA C115D mutant using UNAG as substrate pre incubated for 15 mins followed by substrate addition and measured after 15 mins by microplate reader analysis; conditions: time 30.0 min
[43] = molecular target: T1, UDP-N-acetylglucosamine 1-carboxyvinyltransferase; test: Inhibition of Escherichia colo K12 His-tagged MurA expressed in Escherichia coli BL21 cells using UNAG as substrate pre incubated for 10 mins followed by substrate addition and measured after 30 mins by microplate reader analysis
Staphylococcus aureus [44] = test: Antibacterial activity against Staphylococcus aureus Newman assessed as reduction in microbial growth incubated for 16 hrs by serial dilution method; assay type: functional
Bacillus subtilis = test: Antibacterial activity against Bacillus subtilis ATCC 6633 assessed as reduction in microbial growth incubated for 16 hrs by serial dilution method; assay type: functional

T1 sequence (P0A749 whole entry): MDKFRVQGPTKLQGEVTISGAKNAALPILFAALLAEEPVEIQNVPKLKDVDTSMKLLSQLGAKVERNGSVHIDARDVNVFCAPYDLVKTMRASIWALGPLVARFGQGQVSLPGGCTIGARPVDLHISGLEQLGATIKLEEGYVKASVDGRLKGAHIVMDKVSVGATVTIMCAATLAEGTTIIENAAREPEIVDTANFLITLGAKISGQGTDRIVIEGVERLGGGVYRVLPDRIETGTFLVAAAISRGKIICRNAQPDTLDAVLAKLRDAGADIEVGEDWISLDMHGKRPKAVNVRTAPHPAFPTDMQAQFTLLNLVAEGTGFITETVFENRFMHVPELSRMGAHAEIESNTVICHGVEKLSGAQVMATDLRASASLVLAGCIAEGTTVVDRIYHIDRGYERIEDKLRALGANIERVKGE
Sequence of UDP-N-acetylglucosamine 1-carboxyvinyltransferase (Escherichia coli K-12), P0A749 [C115D] (P0A749 whole entry C115D): as the sequence (P0A749 whole entry) above, with C115D counted along it

## CN[C@H](CC(C)C)C(=O)N[C@H]1C(=O)N[C@@H](CC(N)=O)C(=O)N[C@H]2C(=O)N[C@H]3C(=O)N[C@H](C(=O)N[C@H](C(=O)O)c4cc(O)cc(O)c4-c4cc3ccc4O)[C@H](O)c3ccc(c(Cl)c3)Oc3cc2cc(c3O[C@@H]2O[C@H](CO)[C@@H](O)[C@H](O)[C@H]2O[C@H]2C[C@](C)(N)[C@H](O)[C@H](C)O2)Oc2ccc(cc2Cl)[C@H]1O [VANCOMYCIN]
Clostridioides difficile [1]
  MIC: 0.5 µg/mL
Lactobacillus gasseri [2]
  MIC: 4 µg/mL
Clostridioides difficile [3]
  MIC: 1 µg/mL
Bifidobacterium longum
  MIC: 0.5 µg/mL
[4]
  MIC: 1 µg/mL
Clostridioides difficile [5]
  MIC: 0.5 µg/mL
Clostridioides difficile [6]
  MIC: 0.5 µg/mL
Clostridioides difficile [7]
  MIC: 0.5 µg/mL
Streptococcus pneumoniae
  MIC: 2 µg/mL
Bacteroides fragilis [8]
  MIC: > 64 µg/mL
Clostridioides difficile [9]
  MIC: 0.5 µg/mL
Clostridioides difficile [10]
  MIC: 2 µg/mL
Clostridioides difficile [11]
  MIC: 2 µg/mL
Bacteroides fragilis [12]
  MIC: 64 µg/mL
Clostridioides difficile [13]
  MIC: 0.25 µg/mL
Clostridioides difficile [14]
  MIC: 0.5 µg/mL
Lactobacillus crispatus [15]
  MIC: 1 µg/mL
Clostridioides difficile [16]
  MIC: 0.5 µg/mL
Clostridioides difficile [17]
  MIC: 0.25 µg/mL
Clostridioides difficile [18]
  MIC: 2 µg/mL
Clostridioides difficile [19]
  MBC: 2 µg/mL
Clostridioides difficile [20]
  MBC: 1 µg/mL
Clostridioides difficile [21]
  MIC: 0.5 µg/mL
Clostridioides difficile [22]
  MIC: 0.5 µg/mL
Clostridioides difficile [23]
  MIC: 0.5 µg/mL
Clostridioides difficile [24]
  MIC: 1 µg/mL
Clostridioides difficile [25]
  MBC: 2 µg/mL
Clostridioides difficile [26]
  MIC: 0.5 µg/mL
Clostridioides difficile [27]
  MBC: 0.5 µg/mL
Clostridioides difficile [28]
  MIC: 0.25 µg/mL
Lactobacillus gasseri [29]
  MIC: 2 µg/mL
Bacteroides fragilis [30]
  MIC: > 64 µg/mL
Clostridioides difficile [31]
  MBC: 0.5 µg/mL
Bifidobacterium breve [32]
  MIC: 1 µg/mL
Bifidobacterium breve [33]
  MIC: 1 µg/mL
Bacteroides fragilis [34]
  MIC: 64 µg/mL
Clostridioides difficile [35]
  MBC: 0.5 µg/mL
Clostridioides difficile [36]
  MIC: 0.25 µg/mL
Lactobacillus crispatus [37]
  MIC: 1 µg/mL
Staphylococcus aureus [38]
  MIC: 32 µg/mL
Clostridioides difficile [39]
  MIC: 0.5 µg/mL

## C[C@@H]1O[C@@H]1P(=O)(O)O [FOSFOMYCIN]
Bacteria
  Activity: Active
Staphylococcus aureus [40]
  MIC: 17 µM
[41]
  IC50: 6.7 µM
Escherichia coli
  MIC: 89 µM
[42]
  inhibition: inactive

## O=C1/C(=N\O)CN(c2cccc(Cl)c2)N1c1cccc(Cl)c1
[43]
  IC50: 88.1 µM
Escherichia coli
  MIC: 4 µg/mL
Staphylococcus aureus [44]
  MIC: 20 µg/mL
Bacillus subtilis
  MIC: 10 µg/mL
